From patent US4743585A (Warner-Lambert Company, priority 1986, dated 1988) come the findings set out here.

This experiment concerns the target T1, renin (Homo sapiens, UniProt P00797).
T1 sequence (P00797 67-406): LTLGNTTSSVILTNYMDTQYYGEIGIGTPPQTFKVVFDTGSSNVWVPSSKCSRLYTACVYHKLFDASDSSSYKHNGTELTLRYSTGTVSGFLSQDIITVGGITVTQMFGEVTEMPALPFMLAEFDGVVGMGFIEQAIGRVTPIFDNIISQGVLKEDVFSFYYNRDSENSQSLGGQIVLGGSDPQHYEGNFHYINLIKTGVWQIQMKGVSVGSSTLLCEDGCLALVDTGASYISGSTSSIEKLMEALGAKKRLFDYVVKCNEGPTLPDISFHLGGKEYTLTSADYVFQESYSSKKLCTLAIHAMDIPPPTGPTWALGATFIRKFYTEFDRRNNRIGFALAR
Nature of the experiment: in vitro renin inhibitory activity, standard radioimmunoassay for angiotensin I. The class given is biochemical. How it is done: The effectiveness of the aforementioned compounds is determined by a test for in vitro renin inhibitory activity. This activity is determined by a standard radioimmunoassay for angiotensin I. In this assay the enzyme, renin, incubated for two hours at 37° in the presence of a substrate, angiotensinogen, generates the product, angiotensin I. Test compounds are added to the incubation mixture.
As for `CC(C)C[C@@H](CN(Cc1ccccc1)C(=O)OCc1ccccc1)NC(=O)C[C@H](O)[C@H](CC(C)C)NC(=O)[C@@H](NC(=O)[C@H](Cc1ccccc1)NC(=O)OC(C)(C)C)C(C)C` [Example 56, l-valinamide.N-[(1,1-dimethylethoxy)carbonyl]-L-phenylalanyl-N-[2-hydroxy-4-[[3-methyl-1-[[[(phenylmethoxy)carbonyl](phenylmethyl)amino]methyl]butyl]amino]-1-(2-methylpropyl)-4-oxobutyl]-, [2S-[1R*,2R*,4R*)]]-], it took 16 µM to reach half-maximal inhibition (IC50). For the compound `CC(C)CC(=O)N[C@@H](Cc1ccccc1)C(=O)N[C@@H](Cc1c[nH]cn1)C(=O)N[C@@H](CC(C)C)[C@@H](O)CC(=O)N[C@@H](CC(C)C)CN(Cc1ccccc1)C(=O)OCc1ccccc1` [Example 57, L-histidinamide. N-(3-methyl-1-oxobutyl)-L-phenylalanyl-N-[2-hydroxy-4-[[3-methyl-1-[[[(phenylmethoxy)carbonyl](phenylmethyl)amino]methyl]butyl]amino]-1-(2-methylpropyl)-4-oxobutyl]-, [1S-[1R*,2R*,4(R*)]]-], the IC50 (as a rule, the midpoint of a concentration-inhibition curve) stood at 3 µM.

In turn, `CC(C)CC(=O)N[C@@H](Cc1ccccc1)C(=O)N[C@@H](Cc1c[nH]cn1)C(=O)N[C@@H](CC(C)C)[C@@H](O)CC(=O)N[C@H](CNCc1ccccc1)CC(C)C` [Example 58, IVA-PHE-HIS-STA-LEU[CH2 NH]CH2 Ph] showed a 50% inhibitory concentration (IC50) of 1.9 µM.

`CC(C)C[C@H](NC(=O)[C@H](C)NC(=O)C[C@H](O)[C@H](CC(C)C)NC(=O)[C@H](Cc1ccccc1)NC[C@H](Cc1ccccc1)NC(=O)OC(C)(C)C)[C@@H](O)CC(=O)NCc1ccccc1` [Example 59, BOC-PHE[CH2 NH]PHE-STA-ALA-STA-NHCH2 Ph] yielded an IC50 of 5.6 µM.

In the case of `Cc1c(C)c(C)c(C[C@H](CN[C@@H](Cc2c[nH]cn2)C(=O)N[C@@H](CC(C)C)[C@@H](O)CC(=O)N[C@@H](CC(C)C)C(=O)NC2CCN(Cc3ccccc3)CC2)NC(=O)OC(C)(C)C)c(C)c1C` [Example 61], the IC50 was 30 µM. The compound `CC(C)C[C@H](NC(=O)C[C@H](O)[C@H](CC(C)C)NC(=O)[C@H](Cc1cncn1COCc1ccccc1)NC[C@H](Cc1ccccc1)NC(=O)OC(C)(C)C)C(=O)NCc1ccccc1` [Example 62, BOC-PHE[CH2 NH]HIS(BOM)-STA-LEU-NHCH2 Ph] had a half-inhibitory concentration (IC50) of 16 µM. The value for `CC(C)CC(=O)N[C@@H](Cc1ccccc1)C(=O)N[C@@H](Cc1c[nH]cn1)C(=O)N[C@H](CN[C@@H](CC(C)C)C(=O)NCc1ccccc1)CC(C)C` [Example 65, L-histidinamide, N-(3-methyl-1-oxobutyl)-L-phenylalanyl-N-[3-methyl-1-[[[3-methyl-1-[[(phenylmethyl)amino]carbonyl]butyl]amino]methyl]butyl], [S-(R*,R*)]] was 7.7 µM; that for `CC(C)CC(=O)N[C@@H](Cc1ccccc1)C(=O)N[C@H](CN[C@@H](CC(C)C)[C@@H](O)CC(=O)N[C@@H](CC(C)C)C(=O)NCc1ccccc1)Cc1c[nH]cn1` [Example 66, 3,8,11,14-Tetraazaoctadecanamide, 6-hydroxy-10-(1H-imidazol-4-ylmethyl)-17-methyl-2,7-bis(2-methylpropyl)-4,12,15-triazo-N,13-bis(phenylmethyl)-, [2S-(2R*,6R*,7R*,10R*,13R*)]] was 3.5 µM; that for `CC(C)CC(=O)N[C@@H](Cc1ccccc1)C(=O)N[C@@H](Cc1c[nH]cn1)C(=O)N[C@H](CN[C@@H](CC(C)C)C(=O)NCc1ccccc1)CC1CCCCC1` [Example 70, L-histidinamide, N-(3-methyl-1-oxobutyl)-L-phenylalanyl-N-[1-cyclohexylmethyl]-2-[[3-methyl-1-[[(phenylmethyl)amino]carbonyl]butyl]amino]ethyl]-, [S-(R*,R*)]] was 0.28 µM. For `CC[C@H](C)[C@H](NC[C@@H](NC(=O)CC(C)C)[C@@H](C)CC)C(=O)N[C@@H](CC(C)C)[C@@H](O)CC(=O)N[C@@H](CC(C)C)C(=O)NCc1ccccc1` [Example 73, 3,8,11,14-tetraazaoctadecanamide, 6-hydroxy-17-methyl-10,13-bis(1-methylpropyl)-2,7-bis(2-methylpropyl)-4,9,15-trioxo-N-(phenylmethyl)], the midpoint of inhibition, the IC50, lay at 30 µM.

As for `CC(C)CC(COC(C(=O)NC(CC(C)C)C(O)CC(=O)NC(C)C(=O)NC(CC(C)C)C(O)CC(=O)NCc1ccccc1)c1ccccc1)NC(=O)OC(C)(C)C` (centres unmarked) [Example 75, 10,18-dihydroxy-14-methyl-3,9,17-tris-(2-methylpropyl)-7,12,15,20-tetraoxo-6,22-diphenyl-5-oxa-2,8,13,16,21-pentaazadocosanoic acid, 1,1-dimethylethyl ester], 20 µM corresponded to half-maximal inhibition (IC50).

`CC(C)CC(=O)N[C@@H](Cc1ccccc1)C(=O)N[C@@H](Cc1c[nH]cn1)C(=O)NC(CC(C)C)C(O)CC(CC(C)C)C(=O)NCc1ccccc1` (stereo partly drawn) [Example 76, L-Histidinamide, N-(3-methyl-1-oxobutyl)-L-phenylalanyl-N-[2-hydroxy-6-methyl-1-(2-methylpropyl)-4-[[(phenylmethyl)amino]carbonyl]heptyl]] registered an IC50 of 0.74 µM. Consider `CCC(C)CNC(=O)CCC(O)[C@H](CC1CCCCC1)NC(=O)[C@H](Cc1c[nH]cn1)NC(=O)[C@H](Cc1cccc2ccccc12)NC(=O)OCc1ccccc1` (some centres unmarked) [Example 77], for which the IC50 is 1.6 µM. Regarding `CC(C)CC(=O)N[C@@H](Cc1ccccc1)C(=O)N[C@@H](Cc1c[nH]cn1)C(=O)N[C@@H](CC1CCCCC1)C(O)CC(CC(C)C)C(=O)NCc1ccccc1` (some centres unmarked) [Example 78], inhibition was half-maximal at 0.24 µM (IC50). The compound `CC(C)CC(CC(O)[C@H](CC1CCCCC1)NC(=O)OC(C)(C)C)C(=O)N[C@@H](CC(C)C)[C@@H](O)CC(=O)N[C@@H](CC(C)C)C(=O)NCc1ccccc1` (some centres unmarked) [Example 79] displayed an IC50 of 3.8 µM. `CC(C)CC(=O)N[C@@H](Cc1ccccc1)C(=O)N[C@@H](Cc1c[nH]cn1)C(=O)N[C@@H](CC1CCCCC1)C(O)CCC(=O)NCc1cccc(CN)c1` (some centres unmarked) [Example 80]: the midpoint of inhibition, the IC50, lay at 2.1 µM. Compound `CC(C)CC(=O)N[C@@H](Cc1ccccc1)C(=O)N[C@@H](Cc1c[nH]cn1)C(=O)N[C@@H](CC1CCCCC1)C(O)CC(CC(C)C)C(=O)NCc1cccc(CN)c1` (some centres unmarked) [Example 81] had an IC50 of 0.054 µM. Consider `CC(C)CC(=O)N[C@@H](Cc1ccccc1)C(=O)N[C@@H](Cc1c[nH]cn1)C(=O)N[C@@H](CC1CCCCC1)C(O)CCC(=O)N[C@@H](CC(C)C)C(=O)NCc1cccc(CN)c1` (some centres unmarked) [Example 82], for which the IC50 amounted to 0.12 µM. The value for `CCC(C)CNC(=O)/C=C/C(O)[C@H](Cc1ccccc1)NC(=O)[C@H](Cc1c[nH]cn1)NC(=O)[C@H](Cc1ccccc1)NC(=O)OC(C)(C)C` (some centres unmarked) [Example 84, BOC-PHE-HIS-PHE[CHOHCH=CHCO]NHCH2 CH(CH3)CH2 CH3] was 1.4 µM; that for `CCC(C)CNC(=O)CCC(O)[C@H](Cc1ccccc1)NC(=O)[C@H](Cc1c[nH]cn1)NC(=O)[C@H](Cc1ccccc1)NC(=O)OC(C)(C)C` (some centres unmarked) [Example 85, BOC-PHE-HIS-PHE[CHOHCH2 ]GLY-NHCH2 CH(CH3)CH2 CH3] was 0.075 µM.
